Test results from a melting point compilation (Tetko et al.; mined from patent text by program, amines drawn as free bases though some values may be those of a salt).

melting point [°C] | SMILES
159 to 161 | COc1ccc(-c2cc(C(=O)O)c(=O)n(CC3CCCC3)n2)cc1F
116 to 120 | CCCCCCCCCN(C[C@H]1CCC[C@H](CN(CCCCCCCCC)C(=O)Nc2ccc(N(C)C)cc2)C1)C(=O)Nc1ccc(N(C)C)cc1 (relative stereo)
235 to 236 | CCOC(=O)c1ccc(CCN2CCN(CCCS(=O)(=O)O)CC2)cc1
78 to 81 | O=C1C2=C(C=CCN2)CCc2ccc(F)cc21
301 to 302 | Cc1cccc(-n2nc(C)c3c(=O)c4cc(F)c(F)cc4[nH]c32)n1
170 to 171 | Cc1c(N2CCN(Cc3ccccc3)C(C)(C)C2)c(F)cc2c(=O)c(C(=O)O)cn(C3CC3)c12
196 | CCCn1c(=O)c2[nH]c(/C=C/c3ccc(OC)c(OC)c3)nc2n(CCC)c1=O
284 to 286 | CC(C)c1c[nH]c(=O)[nH]c1=O
210 | O=C(O)Cc1ccc(C(=O)c2ccc(Cl)cc2)[nH]1
53 to 55 | CCCc1c(OCCC(C)Br)ccc(C(C)=O)c1O (centres undefined)
52 to 54 | CC(C)(C)c1cc(CCCBr)cc(C(C)(C)C)c1O
168 to 170 | CCCc1ccc(C(=O)Nc2ccc3c(c2)CCCC3=O)cc1
132 to 134 | N#CCc1cnc(N)cn1
193 to 195 | CC(=O)Nc1ncnc2c1ncn2[C@@H]1C[C@H](OC(C)=O)[C@@H](O)[C@H]1O (racemic)
208 | O=C(NC(=O)c1ccc(F)cc1Cl)Nc1ccc(Cl)c(Cl)c1
118 to 120 | CCOC(=O)C(C)OCc1cc2cc(Cl)ccc2n1S(=O)(=O)c1cc(OC)ccc1OC (centres undefined)
149 to 150 | CNC(=O)C(SC)c1cccc(C(=O)c2ccccc2)c1N (centres undefined)
100 to 102 | Cc1ccc(S(=O)(=O)OCC2(C)Cc3cc(Cl)cc(OS(=O)(=O)C(F)(F)F)c3O2)cc1 (centres undefined)
129 to 130 | c1ccc2c(c1)OCCc1c-2n(Cc2ccc(OCCCN3CCCCC3)cc2)c2ccccc12
73.6 to 75.4 | Oc1ccc2nc(SCCC=C(F)F)oc2c1
101 | CN1CCC(C(=O)N(C)C)C(c2cccc(F)c2)C1 (centres undefined)
187 to 190 | CCc1ccc(NC(=O)c2sccc2S(=O)(=O)Nc2onc(C)c2Br)cc1
140 to 141 | CC#COc1ccc2c(C)cc(=O)oc2c1

melting point [°C] | SMILES
117 to 122 | CCOC(=O)c1cnc(O)nc1NCc1ccc(OC)c(Cl)c1
140 to 142 | CC1(C)CCc2c(ccc3c2C(=O)C(Cl)=CC3=O)O1
92 to 93 | COC(=O)C(=O)NC(=O)N1CCCCC1
> 250 | CC(C)N1CCC(n2cc(C3=C(c4cn(C)c5ccccc45)C(=O)NC3=O)c3ccccc32)CC1
124 to 126 | CCCS(=O)(=O)NC(=O)CCc1cc(OC(C)C)nn1Cc1ccc(Cl)cc1Cl
172 to 174 | CN(C)C(=O)C1CCC2C(=O)N(c3ccccc3)C(=O)N12 (centres undefined)
263 to 265 | CC(C)(c1ccccc1)c1ccc(N)c(S(=O)(=O)O)c1
69 | COC(=O)C1=CC(=O)CCC1c1cccs1 (racemic)
160 to 170 | CS(=O)CCC(NS(=O)(=O)c1ccc2c(c1)Sc1ccccc1O2)C(=O)O (centres undefined)
155 | Cc1cccc(OC(=O)n2c3c(c(=O)n(C4CCCCO4)c2=O)CCC3)c1 (centres undefined)
146 to 147 | CC(C)c1nc(CCOC(=O)N[C@H](C(=O)N[C@@H](Cc2ccccc2)C[C@H](O)[C@H](Cc2ccccc2)NC(=O)OCc2cncs2)C(C)C)cs1
107 to 109 | O=C(O)CCc1ccccc1Cc1ccc(Cl)cc1
180 to 185 | O=C(O)CCc1cc2ccccc2n1S(=O)(=O)c1ccccc1
145 to 147 | Cc1ccnc(-c2ccc([N+](=O)[O-])cc2)c1
131 to 132 | COc1c2c(cc3ccc(=O)oc13)CC(OC)O2 (centres undefined)
138 | O=C(O)CC/C=C/CC(NC(=O)c1ccccc1)C(=O)O (centres undefined)
228 | O=C(O)/C=C/c1ccc(OCCN2CCOCC2)cc1
160 to 161 | O=C(CNC(=O)c1ccc(Cl)cc1)c1ccsc1
117 to 119 | O=c1[nH]c(CCCN2CCCC2)cc2ccccc12
121 to 123 | N[C@H]1CC[C@@H](N2CCNC2=O)CC1
110 | CCNc1cncc(C#N)c1
88 to 89 | Clc1cc(Cl)cc(C2=NOCCS2)c1
90 to 92 | CC(C)(C)c1nc2c(Cl)cc(F)c(-n3c(=O)cc(C(F)(F)F)n(N)c3=O)c2o1

melting point [°C] | SMILES
212 to 213 | CCCCCCCC(=O)N1CCN(c2ccc3c(c2)N2CCN=C2C(c2ccccc2)=[N+]3[O-])CC1
132 to 133 | C1=C(c2ccc3c(c2)OCCO3)CCC(N2CCN(Cc3ccccc3)CC2)C1 (centres undefined)
100 to 102 | O=[N+]([O-])CSc1ccc(Oc2ccccc2)cc1
152 to 153 | CC(C)c1cc(C(=O)Nc2ccc(C(=O)O)c(Cl)c2)oc1C(C)C
214 to 217 | CC(=O)Nc1ccc2cc(S(N)(=O)=O)sc2c1
217 to 221 | CCN(Cc1ccc2nc(C)[nH]c(=O)c2c1)c1ccc(C(=O)NCc2nccn2Cc2ccccc2)cc1
60 to 62 | CCCCCCCCCCCCCCCCCCOCCSCCOC(=O)NCc1ccccn1
143 to 145 | O=C(COc1ccc(CN2CCCC2)cc1)Nc1ccc(Br)cc1
221 to 225 | CC(C)(O)C1CCN(S(=O)(=O)c2cc(C#N)ccc2Oc2cc(Cl)ccc2Cl)CC1
178 to 179 | Cc1nc(N2CCN(Cc3ccccc3)C2=O)sc1C(=O)NCc1cccc(Cl)c1
144 to 149 | C=C1CCC2C3CCC4CC(O)CCC4(C)C3C(N)CC12C (centres undefined)
175 | CN(C)c1ccc(C2SCC(C(=O)O)N2C(=O)OC(C)(C)C)cc1 (mixture of isomers)
142 | Cc1cc(C)cc(NCc2ccc3nc(NC4CCN(CCS(N)(=O)=O)CC4)n(Cc4nc(C)ccc4O)c3c2)c1
119 to 122 | COc1ccccc1C(=O)c1cc([N+](=O)[O-])ccc1SC
79 to 82 | O=C(O)CCCC=C1SC[C@H]2[C@@H]1N(Cc1ccccc1)C(=O)N2Cc1ccccc1
303 | Cc1ccc(Cl)c2c1[nH]c1c(C(=O)O)cccc12
244 to 248 | Cc1c(S(=O)(=O)N(C)C)c(=O)c2ccc(F)cc2n1C
170 to 171 | Cn1c(=O)c2conc2n(C)c1=O
236 to 237 | Cn1cc(C(=O)NCc2ccc(Cl)cc2)c(=O)c2cc(I)sc21
78.5 to 81 | COc1ccc(-c2cccc(OCc3ccccc3)c2)cc1
123 to 126 | CN1CCCCC1CNC(=O)Nc1cc(OCC(F)(F)F)ccc1OCC(F)(F)F (centres undefined)
78 to 80 | CCc1cc(-c2ccc(F)cc2)c(O)cc1OC(CC)Oc1cc(NC(=O)CCCC(=O)N2CCOCC2)ccc1CCC(=O)O (centres undefined)
> 300 | C=CCn1c(=O)c2nc(-c3ccc(/C=C/C(=O)O)cc3)[nH]c2n(CC=C)c1=O

melting point [°C] | SMILES
140 to 142 | O=C(O)C(O)=CC(=O)c1cn(Cc2ccccc2)cc(Cc2ccccc2)c1=O
216 to 217 | Cn1c(C(F)(F)F)cc(=O)n(-c2ccc(Cl)c(C=C(Cl)C(=O)O)c2)c1=O
178 | CS(=O)(=O)N1CN(C(=O)c2c(F)cccc2F)C(=O)N(c2ccc(Cl)cc2)C1
195 to 196 | CCCOc1cc2c(cc1C1CCCc3oc(/C=C/C(=O)O)cc31)C(C)(C)CCC2(C)C (centres undefined)
54 | CCCCC[C@H]1CC[C@H](C(=O)Oc2ccc(OC(F)F)cc2)CC1
167 to 169 | COc1cc(NC2CCCC2)n2nc(-c3ccc(F)cc3)c(-c3ccnc(NC4CCCC4)n3)c2c1
134 to 135 | CCOC(=O)N[C@@H]1CCc2ccccc2[C@H]1Nc1ccccc1CO (relative stereo)
258 to 260 | Oc1ccc(Nc2nc(NCc3ccco3)nc(Nc3ccc4[nH]ccc4c3)n2)cc1
212 to 213 | Cc1nc(-c2cn(Cc3ccccc3)nn2)sc1C(=O)NCc1cccnc1
182 to 184 | O=C1c2ccccc2C(=O)N1CCCC(=O)N1c2ccccc2N(Cc2ccccc2)C(=O)[C@H]2CCC[C@H]21 (relative stereo)
155 to 156 | O=C(CCCc1ccccc1)N[C@H](Cc1ccc(F)cc1)[C@@H](O)c1ccc(C(F)(F)F)cc1 (racemic)
220 to 222 | CC1Cc2cc(C(O)C(C)N3CCC(n4c(=O)[nH]c5ccccc54)CC3)ccc2S1 (centres undefined)
228 | Cc1cc2cc(CN3CCC(CCCC(N)=O)CC3)cnc2cc1NC(=O)c1ccc(-c2ccc(F)cc2)cc1
169 to 172 | CCNC(=O)c1ccc(-n2nnc(C(=O)NC3CC3)c2CS(=O)(=O)c2ccccc2)cc1
112 to 114 | C=Cc1ccc2cc(C3CCN(Cc4ccccc4)CC3)ccc2c1
128 to 131 | COc1cc2c(-c3ccnc(NN)c3)c(CO)c(CO)cc2cc1OC(C)C
59 to 61 | Cc1ncc(CO)cc1OC(=O)c1cccs1
78 to 80 | CC1(C)[C@H]2CC=C(CCOCC(=O)O)[C@@H]1C2
130 to 131 | O=C(NNC(c1ccccc1)(c1ccccc1)c1ccccc1)c1ccccc1
138 | COC(=O)[C@@H]1CCCN1S(=O)(=O)c1ccc(Cl)c(COc2cccc3c(C)cc(C)nc23)c1Cl
134 to 135 | COC(=O)c1cc2c3cc(Br)ccc3n(Cc3ccccc3)c2s1

SMILES | melting point [°C]
O=C(O)CSC1c2cccc(O)c2C(=O)c2c(O)cccc21 | 151 to 152
c1ccc2c(c1)Cn1cccc1C1CNCCN21 (centres undefined) | 56 to 58
O=C1c2ccccc2OCC1Br (centres undefined) | 48 to 51
CCc1nc2cccc(C)c2c(=O)n1-c1ccc(F)cc1 | 170
Cc1nc2cc(NC(=O)c3cc4cccnc4n3Cc3ccncc3)ccc2s1 | 211 to 236
NC1Cc2cccc3c2C(C1)CN3C(=O)c1ccccc1 (centres undefined) | 118 to 120
CC=CN1CC([N+](=O)[O-])=CN(C(C)c2ccc(Cl)nc2)C1(C)N (centres undefined) | 148 to 150
CC(C)(C)OC(=O)c1ncn2c1[C@@H]1CCCN1C(=O)c1c-2cccc1C(F)(F)F | 201 to 203
CNc1ccc(C#CCCN2CC=C(c3ccccc3)CC2)nc1 | 164 to 166
